According to patent US5573772A, “Methods for protecting tissues and organs from ischemic damage” (priority 1994, dated 1996):

System: isolated rabbit hearts
Test: Infarct size after 30 min coronary branch occlusion and 120 min reperfusion in isolated rabbit hearts, Example 1
Parameters: species or system rabbit (New Zealand white)
Conditions: for Infarct size compared with control group: ADO 10 uM or APNEA 50 nM, p<0.01
Experimental: These solutions were then diluted in Krebs buffer to the final concentration just before the experiments started. New Zealand white rabbits of either sex, between 1.4-2.4 kg, were anesthetized with intravenous sodium pentobarbital (30 mg/kg). The neck was opened and a tracheotomy was performed. The rabbits were ventilated with 100% oxygen via a positive pressure respirator (MD industries, Mobile, Ala.). Ventilation rate was 30-35 breaths per minute, and tidal volume was approximately 15 ml. A left thoracotomy was performed in the fourth intercostal space and pericardium was opened to expose the heart. A 2-0 silk suture with an RB taper needle was passed around a branch of the left coronary artery, and the end of the silk were threaded through a small vinyl tube to form a snare. The heads were quickly excised and mounted on a Langendorff apparatus and perfused at constant pressure with Krebs buffer containing (in mM) 118.5 NaCl, 4.7 KCl, 1.2 MgSO4, 1.2 K2 PO4, 24.3 NaHCO3, 2.5 CaCl2 and 10 glucose. […] The temperature of the perfusate was maintained at 37° C. The perfusion pressure was kept at 75 mm Hg. Pacing electrodes were placed on the right atrium and all hearts were paced at 200 beats/minute with pulses of 5 volts and 4 msec duration to keep the heart rate constant. A fluid-filled latex balloon connected to a transducer via PE240 tubing was inserted into the left ventricle. Balloon volume was adjusted to set the left ventricular diastolic pressure at 10 mm Hg at the beginning of the experiment. Total coronary artery flow was measured by timed collection of buffer from the chamber into a graduated cylinder. Regional ischemia was effected by pulling the snare tight and clamping the tube with a hemostat. Global ischemia was performed by clamping the inflow tubing of the Langendorff apparatus. Reperfusion was achieved by releasing the restriction. All hearts were allowed to equilibrate for 20 minutes before the experiments were started. Heart rate (HR), coronary flow (CF) and left ventricular developed pressure (LVDP) were recorded at the point just before and at the end of each treatment with the pacing momentarily turned off. […] The hearts were removed from the Langendorff apparatus, weighed and then frozen. The hearts were cut into 2 mm transverse slices. The slices were thawed and incubated in 1% triphenyl tetrazolium chloride (TTC) in pH 7.4 buffer for 20 minutes at 37° C. TTC reacts with NADH and dehydrogenase enzymes and stains all tissue still having them to a deep red color. […] After staining, the area of infarcted tissue (TTC negative tissue) and the risk zone (area lacking fluorescence under ultraviolet light) in each slice were traced. The area of infarct and risk zone were determined by planimetry of the tracing. The volume of infarcted myocardium and myocardium at risk was then calculated by multiplying the planimetered areas by the slice thickness. The animals were divided into 10 groups. The hearts in all groups were subjected to 30 minutes of coronary branch occlusion followed by 120 minutes of reperfusion. Control group (CON, n=10) only experienced the above-mentioned 30 minutes of regional ischemia while the preconditioned group (PC, n=12) received an additional 5 minutes of global ischemia plus 10 minutes of reperfusion prior to the 30 minute occlusion. In the adenosine group (ADO, n=6) and the APNEA group (APNEA, n=5), the hearts were exposed to 10 uM adenosine and 50 nM APNEA respectively, for 5 minutes as a substitute for ischemic preconditioning. The drug was allowed to washout for 10 minutes before the 30 minute ischemia was started. In groups receiving SPT, the blocker was included in the perfusate for 15 minutes at 100 uM starting 5 minutes before the exposure of ADO (ADO-SPT group, n=6) or APNEA (APNEA-SPT group, n=5) or 5 minutes before and after 5 minutes of preconditioning ischemia (PC-SPT group, n=5). […] All results are expressed as group mean±SEM. […]

SMILES: Nc1ncnc2c1ncn2[C@@H]1O[C@H](CO)[C@@H](O)[C@H]1O [ADO, Adenosine]
- Infarct size compared with control group: significantly smaller than those in the control group
- Infarct size (area at risk infarcted) (ADO 10 uM, 5 minutes, control 29.4±2.9%, PC 10.8±2.8%): 11.4±2.1%

SMILES: Nc1ccc(CCNc2ncnc3c2ncn3[C@@H]2O[C@H](CO)[C@@H](O)[C@H]2O)cc1 [APNEA, N^6-(2-(4-aminophenyl)ethyl) adenosine]
- Infarct size compared with control group: significantly smaller than those in the control group
- Infarct size (area at risk infarcted) (APNEA 50 nM, 5 minutes, control 29.4±2.9%): 11.9±2.3%

SMILES: CCCn1c(=O)c2[nH]c(C3CCCC3)nc2n(CCC)c1=O [DPCPX, 8-cyclopentyl-1,3-dipropylxanthine]
- Infarct size (area at risk infarcted) (DPCPX 200 nM + ADO 10 uM (ADO-DPCPX)): 14.4±7.0%
- Infarct size (area at risk infarcted) (DPCPX 200 nM + APNEA 50 nM (APNEA-DPCPX)): 8.7±1.7%
- Infarct size (area at risk infarcted) (DPCPX 200 nM + PC (PC-DPCPX)): 15.6±7.8%

SMILES: Cn1c(=O)c2[nH]c(-c3ccc(S(=O)(=O)O)cc3)nc2n(C)c1=O [SPT, 8-(p-Sulfophenyl)-theophylline]
- Infarct size (area at risk infarcted) (SPT 100 uM + ADO 10 uM (ADO-SPT)): 29.8±3.4%
- Infarct size (area at risk infarcted) (SPT 100 uM + APNEA 50 nM (APNEA-SPT)): 32.8±3.3%
- Infarct size (area at risk infarcted) (SPT 100 uM + PC (PC-SPT)): 33.8±2.4%
